In PubChem BioAssay AID1963836 (Molecular Pharmacology Branch, DTP, NCI, 2024):
Where “and” joins values, the source holds several entries; their conditions need not be identical. Equal entries are not always repeated.

Test system: 857933-349-R-J2-PDC complex spheroid viability
Test: Anticancer human tumor 857933-349-R-J2-PDC patient-derived colon adenocarcinoma cell line growth inhibition [POLQ]
Details: for viability, T/C: stronger effect = lower value
Procedure: Multicellular complex tumor spheroid response to Polymerase (POL) inhibitors (novobiocin, ART-558, RP6685) in combination with a variety of drugs and investigational agents in selected tumor cell lines
The POL inhibitors (novobiocin, ART-558, and RP6685) were evaluated both individually and in combination with standard of care and investigational anticancer small molecules within a complex spheroid model of solid tumors. . Complex spheroids include a stromal component modeled by human endothelial cells (HUVEC) and fibroblasts modeled by human mesenchymal stem cells (MSCs). The concentration ranges selected for each drug and investigational agent were based upon clinically achievable concentrations if the clinical Cmax of the agent was known.
Compounds. The drugs and investigational agents: novobiocin (NSC847541), ART-558 (NSC835418), RP-6685 (NSC848927), peposertib (NSC802822), ceralasertib (NSC780249), elimusertib (NSC800525), camonsertib (NSC841442), AZD-1390 (NSC803789), olaparib (NSC753686), talazoparib (NSC767125), rucaparib (NSC756644), sotorasib (NSC818433), MRTX-1133 (NSC836407), SN-38 (NSC673596), topotecan (NSC609699), epotoside (NSC141540), doxorubicin (NSC123127), gemcitabine (NSC613327), 5-fluorouracil (NSC19893), paclitaxel (NSC125973), vemurafenib (NSC761431), MSA-2 (NSC828583), SN-011 (NSC837082), adavosertib (NSC754352), prexasertib (NSC758257), carboplatin (NSC241240) and oxaliplatin (NSC266046), were obtained from the National Cancer Institute (NCI) Developmental Therapeutics Program Chemical Repository (21). The FDA-approved anticancer drug set is available from the Developmental Therapeutics Program at https://dtp.cancer.gov/organization/dscb/obtaining/. […] The stock solutions were prepared in dimethyl sulfoxide (DMSO, Sigma-Aldrich, St. Louis, MO, cat. D2650), except for the platinum compounds which were prepared in saline (Quality Biological, Gaithersburg, MD, cat. 114-055-101), at 800-fold the tested concentration and stored at -70 degrees C prior to their use. All drugs and investigational agents were tested over a range starting from a high concentration at or near the clinical Cmax and decreasing in half-log increments. If the clinical Cmax for an agent had not been determined, the highest concentration tested was 10 microM, except for SN-38, which was tested at a high concentration of 1 microM.
Cell Culture. All cells were maintained in an incubator at 37 degrees C and 5% CO2 with 95% humidity. The PDC lines were cultured according to standard operating procedures established by the NCI PDMR (https://pdmr.cancer.gov). Table 3 of the manuscript, lists the cell lines along with the number of the three cell types plated to form the mct-spheroids and media for tumor cell growth. After thawing, all PDC lines, except 997537-175-T-J1-PDC and 415267-285-R-J2-PDC, were cultured in Matrigel-coated flasks prepared with a working solution of 1X Ham's F-12 nutrient mix, without supplementation (Thermo Fisher Scientific, cat. 11765054), 100 U/mL penicillin-streptomycin (Thermo Fisher Scientific, cat. 15140122), and 2.5% Matrigel (Corning Inc., Corning, NY, cat. 354248) for the first three passages. The two PDC lines 997537-175-T-J1-PDC and 415267-285-R-J2-PDC were cultured on uncoated flasks. The 857933-349-R-J2-PDC line was cultured in 6C/Colon 1B media containing advanced DMEM/F-12 (Thermo Fisher Scientific, cat. 12634028), 10 mM HEPES (Thermo Fisher Scientific, cat. 15630080), 1X GlutaMAX supplement (Thermo Fisher Scientific, cat. 35050061), 0.1 mg/mL primocin (InvivoGen, San Diego, CA, cat. ant-pm-2), 10% defined fetal bovine serum, heat inactivated (HyClone Laboratories Inc., Logan, UT, cat. SH30070.03HI), 50% L-WRN conditioned media (ATCC, cat. CRL-3276), 1.25 mM N-Acetyl-L-cysteine (Sigma-Aldrich, cat. A9165), 10 mM nicotinamide (Sigma-Aldrich, cat. N0636), 1X B-27 supplement (Thermo Fisher Scientific, cat. 17504044), 1X N-2 supplement (Thermo Fisher Scientific, cat. […]
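Also: spheroids exposed to compounds for seven days before readout.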

`Nc1ccn(C2OC(CO)C(O)C2(F)F)c(=O)n1` (configuration not stated) + Nc1ccc(C#CCN(C(=O)Cc2ncc(C(F)(F)F)cc2C(F)(F)F)c2ccc(F)cc2)nn1 gave an IC50 (curve of first compound, second compound 0.0316 µM) of 87 nM, an IC50 (curve of first compound, second compound 0.1 µM) of 114 nM and an IC50 (curve of first compound, second compound 0.316 µM) of 125 nM. The IC50 (curve of first compound, second compound 1 µM) was 121 nM, the IC50 (curve of first compound, second compound 3.16 µM) was 109 nM and the IC50 (curve of first compound, second compound 10 µM) was 115 nM. It also gave a viability, T/C (second compound 0.0316 µM, first compound 0.0316 µM) of 74.7%, a viability, T/C (second compound 0.0316 µM, first compound 0.1 µM) of 46.7% and a viability, T/C (second compound 0.0316 µM, first compound 0.316 µM) of 14.3%. For the same compound, the viability, T/C (second compound 0.0316 µM, first compound 1 µM) was 9.47%, the viability, T/C (second compound 0.0316 µM, first compound 3.16 µM) was 6.73% and the viability, T/C (second compound 0.0316 µM, first compound 10 µM) was 6.61%. The viability, T/C (second compound 0.1 µM, first compound 0.0316 µM) was 65.3%, the viability, T/C (second compound 0.1 µM, first compound 0.1 µM) was 54.7% and the viability, T/C (second compound 0.1 µM, first compound 0.316 µM) was 14.5%. The viability, T/C (second compound 0.1 µM, first compound 1 µM) was 8.76%, the viability, T/C (second compound 0.1 µM, first compound 3.16 µM) was 7.02% and the viability, T/C (second compound 0.1 µM, first compound 10 µM) was 6.34%. The viability, T/C (second compound 0.316 µM, first compound 0.0316 µM) was 71.5%, the viability, T/C (second compound 0.316 µM, first compound 0.1 µM) was 59.6% and the viability, T/C (second compound 0.316 µM, first compound 0.316 µM) was 9.98%. The viability, T/C (second compound 0.316 µM, first compound 1 µM) was 9.36%, the viability, T/C (second compound 0.316 µM, first compound 3.16 µM) was 5.55% and the viability, T/C (second compound 0.316 µM, first compound 10 µM) was 7.25%. It also gave a viability, T/C (second compound 1 µM, first compound 0.0316 µM) of 81%, a viability, T/C (second compound 1 µM, first compound 0.1 µM) of 57.6% and a viability, T/C (second compound 1 µM, first compound 0.316 µM) of 12%. The viability, T/C (second compound 1 µM, first compound 1 µM) was 11.3%, the viability, T/C (second compound 1 µM, first compound 3.16 µM) was 9.17% and the viability, T/C (second compound 1 µM, first compound 10 µM) was 6.73%. For the same compound, the viability, T/C (second compound 3.16 µM, first compound 0.0316 µM) was 69.6%, the viability, T/C (second compound 3.16 µM, first compound 0.1 µM) was 52.8% and the viability, T/C (second compound 3.16 µM, first compound 0.316 µM) was 17.3%. For the same compound, the viability, T/C (second compound 3.16 µM, first compound 1 µM) was 9.05%, the viability, T/C (second compound 3.16 µM, first compound 3.16 µM) was 6.17% and the viability, T/C (second compound 3.16 µM, first compound 10 µM) was 7.31%. For the same compound, the viability, T/C (second compound 10 µM, first compound 0.0316 µM) was 66.3%, the viability, T/C (second compound 10 µM, first compound 0.1 µM) was 54.9% and the viability, T/C (second compound 10 µM, first compound 0.316 µM) was 15%. It also gave a viability, T/C (second compound 10 µM, first compound 1 µM) of 11.1%, a viability, T/C (second compound 10 µM, first compound 3.16 µM) of 12.4% and a viability, T/C (second compound 10 µM, first compound 10 µM) of 10.2%.

For `Cc1cccc(N(C)C(=O)C2C(O)CCN2c2nc(C)cc(C(F)(F)F)c2C#N)c1` (configuration not stated), the viability, T/C (compound 0.0316 µM) was 96.2% [middle of 13 runs], the IC50 (compound alone, run of 01/08/2024) was greater than 10000 nM and the IC50 (compound alone, run of 01/19/2024) was greater than 10000 nM.

For `CNCc1ccc(-c2[nH]c3cc(F)cc4c3c2CCNC4=O)cc1`, the viability, T/C (compound 0.0316 µM) was 100% and 90.4% and 94.9%, the viability, T/C (compound 0.1 µM) was 113% and 94.5% and 90.2% and the viability, T/C (compound 0.316 µM) was 112% and 94.5% and 80.8%. For the same compound, the viability, T/C (compound 1 µM) was 109% and 95.4% and 91.2%, the viability, T/C (compound 3.16 µM) was 108% and 106% and 89.7% and the viability, T/C (compound 10 µM) was 97.1% and 91.2% and 90%. It also gave an IC50 (curve of compound) greater than 10000 nM.
